Experimental data: US9693554B2, “Plant growth accelerator” (COSMO OIL CO., LTD., priority 2013, dated 2017)

Assays:
Type in all cases: in vivo
[1] = test system: Barley; test: Growth accelerating effect on barley (pot grown); conditions: 200 L per 10 a, applied 22 days after seeding, measured 35 days after seeding
Method: Barley was seeded in a pot and grown. The soil used was black soil. The plants were set at 4 plants/pot and 4 to 6 pots/area. A chemical fertilizer (containing 8% of nitrogen, phosphoric acid and potassium respectively) as a basal fertilizer was applied so that each of nitrogen, phosphoric acid and potassium was 5 kg per 10 a. 22 days after seeding, 200 L per 10 a of aqueous solutions containing 0.006 ppm, 0.06 ppm or 0.6 ppm, of 5-amino-4-hydroxypentanoic acid was applied. 35 days after seeding, the plant height, tillering and dry weight of the above-ground part were measured.

[2] = test system: Komatsuna turnip green; test: Growth accelerating effect on Komatsuna turnip green (field grown); conditions: 0.06 ppm
Method: Komatsuna turnip green was seeded and grown at a field. The soil used was red clay. The plants were set at 40 to 52 plants/section and 2 to 3 sections/area. A coated fertilizer (containing 13% nitrogen, 11% phosphoric acid and 13% potassium) as a basal fertilizer was applied so that nitrogen was 50 kg per 10 a. 22 days after seeding, 1000 L per 10 a of an aqueous solution containing 0.06 ppm of 5-amino-4-hydroxypentanoic acid was applied twice. 42 days after seeding, the fresh weight of the above-ground part was measured.

[3] = test system: Radish; test: Growth accelerating effect on radish (pot grown); conditions: 200 L per 10 a, applied 15 and 21 days after seeding, measured 28 days after seeding
Method: (§1) Radish was seeded in a pot and grown. The soil used was a sterilized compost containing fertilizer components (180 mg/L of nitrogen, 120 mg/L of phosphoric acid, 220 mg/L of potassium). The plants were set at 4 plants/pot and 4 pots/area. 15 days after and 21 days after seeding, 200 L per 10 a of aqueous solutions containing 0.06 ppm or 0.6 ppm of 5-amino-4-hydroxypentanoic acid was applied. 28 days after seeding, the fresh weight of the edible part was measured.

[4] = test system: Garland chrysanthemum; test: Growth accelerating effect on garland chrysanthemum (pot grown); conditions: 200 L per 10 a, applied 4, 5, 6 and 7 weeks after seeding, measured 8 weeks after seeding
Method: as §1, with “Garland chrysanthemum” for “Radish”, “4, 5, 6” for “15 days after”, “7 weeks” for “21 days”, “8 weeks” for “28 days”, “above-ground” for “edible”

[5] = test system: Broccoli; test: Growth accelerating effect on broccoli (pot grown); conditions: 0.6 ppm
Method: Commercial young plants were settled in a pot and grown. The soil used was a sterilized compost containing fertilizer components (180 mg/L of nitrogen, 120 mg/L of phosphoric acid, 220 mg/L of potassium). The plants were set at 1 plant/pot and 4 pots/area. Every week (2 weeks through 10 weeks) after settling, 200 L per 10 a of an aqueous solution containing 0.6 ppm of 5-amino-4-hydroxypentanoic acid was applied. 11 weeks after settling, the fresh weight of the edible part was measured.

NCC(O)CCC(=O)O (centres unmarked) [5-amino-4-hydroxypentanoic acid]
Plant length (average) ([1]; 0.006 ppm aqueous solution): 19.4 cm
Dry weight of above-ground part (average) ([1]; 0.006 ppm): 103 mg
Tillering (average) ([1]; 0.006 ppm): 3.50
Plant length (average) ([1]; 0.06 ppm aqueous solution): 20.1 cm
Dry weight of above-ground part (average) ([1]; 0.06 ppm): 103 mg
Tillering (average) ([1]; 0.06 ppm): 3.53
Plant length (average) ([1]; 0.6 ppm aqueous solution): 20.2 cm
Dry weight of above-ground part (average) ([1]; 0.6 ppm): 112 mg
Tillering (average) ([1]; 0.6 ppm): 3.79
Increase of fresh weight of the above-ground part compared with the control area ([2]; 42 days after seeding): 19%
Fresh weight of above-ground part (average) ([2]; field, 1000 L per 10 a, applied twice, 22 days after seeding, measured 42 days after seeding): 40.6 g
Fresh weight of edible part (average) ([3]; 0.06 ppm): 2.26 g
Fresh weight of edible part (average) ([3]; 0.6 ppm): 2.54 g
Fresh weight of above-ground part (average) ([4]; 0.06 ppm): 25.5 g
Fresh weight of above-ground part (average) ([4]; 0.6 ppm): 24.8 g
Increase of fresh weight of the edible part compared with the control area ([5]; 11 weeks after settling): 6%
Fresh weight of edible part (average) ([5]; 200 L per 10 a, applied every week (2 through 10 weeks) after settling, measured 11 weeks after settling): 39.2 g
